A short description of series [1]: Binding affinity to human recombinant Hsp90 expressed in Escherichia coli BL21 (DE3) cells assessed as dissociation constant.
Series [2] in a line: Binding affinity to Hsp90 (unknown origin) expressed in Escherichia coli BL21 (DE3) cells assessed as inhibition constant by NMR STD analysis. The arrangement: species or system Homo sapiens.
Series [3] in a line: Binding affinity to Hsp90 (unknown origin) assessed as dissociation constant. The arrangement: species or system Homo sapiens.
A short description of series [4]: Binding affinity to human Hsp90 expressed in Escherichia coli BL21 (DE3) cells assessed as inhibition constant.
In series [5] the target is T1, Programmed cell death protein 1/Programmed cell death 1 ligand 1 (Homo sapiens, UniProt Q15116+Q9NZQ7). The series is described as follows: Inhibition of PD-1/PD-L1 (unknown origin) protein-protein interaction expressed in HEK293 cells by HTRF method. It is filed as cell-based. On the technique in general: Time-resolved FRET reads energy transfer from a long-lived donor to a nearby acceptor.
T1 sequence (Q15116 whole entry): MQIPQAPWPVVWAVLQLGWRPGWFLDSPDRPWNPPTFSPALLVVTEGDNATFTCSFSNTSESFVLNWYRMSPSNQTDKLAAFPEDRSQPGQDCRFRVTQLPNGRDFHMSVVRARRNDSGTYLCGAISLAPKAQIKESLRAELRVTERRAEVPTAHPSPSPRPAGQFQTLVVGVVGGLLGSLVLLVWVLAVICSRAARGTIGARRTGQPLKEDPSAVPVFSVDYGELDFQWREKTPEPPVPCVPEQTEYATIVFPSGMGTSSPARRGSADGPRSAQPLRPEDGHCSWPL
T1 sequence (Q9NZQ7 whole entry): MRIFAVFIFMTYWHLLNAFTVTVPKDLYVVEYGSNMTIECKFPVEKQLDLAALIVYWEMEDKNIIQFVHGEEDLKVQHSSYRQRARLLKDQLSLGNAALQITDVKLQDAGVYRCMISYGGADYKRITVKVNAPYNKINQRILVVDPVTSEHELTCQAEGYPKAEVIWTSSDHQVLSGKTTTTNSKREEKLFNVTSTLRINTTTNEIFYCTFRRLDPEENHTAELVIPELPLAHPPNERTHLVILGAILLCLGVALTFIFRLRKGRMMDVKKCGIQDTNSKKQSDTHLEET

For series [6], the target named is Stimulator of interferon genes protein (Homo sapiens, UniProt Q86WV6). The series is described as follows: Binding affinity to N-terminal His-tagged wild type human STING CTD ([…]) expressed in Escherichia coli BL21 (DE3) cells assessed as dissociation constant by NMR analysis.
Sequence of Stimulator of interferon genes protein (Q86WV6 whole entry): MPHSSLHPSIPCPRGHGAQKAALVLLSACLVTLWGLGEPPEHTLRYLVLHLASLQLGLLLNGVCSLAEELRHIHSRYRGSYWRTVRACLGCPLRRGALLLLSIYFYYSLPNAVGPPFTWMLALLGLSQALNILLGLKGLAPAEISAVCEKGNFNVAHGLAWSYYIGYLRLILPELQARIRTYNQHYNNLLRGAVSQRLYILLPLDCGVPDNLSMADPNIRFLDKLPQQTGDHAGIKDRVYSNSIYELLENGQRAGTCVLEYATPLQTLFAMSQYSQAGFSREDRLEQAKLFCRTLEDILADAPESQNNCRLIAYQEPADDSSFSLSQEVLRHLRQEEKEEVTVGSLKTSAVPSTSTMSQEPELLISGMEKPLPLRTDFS
Series [7] concerns the target T1, Programmed cell death protein 1/Programmed cell death 1 ligand 1. Nature of the series: Inhibition of PD-1/PD-L1 (unknown origin) protein-protein interaction incubated for 1 hr by HTRF assay. It is filed as protein-complex assay.
The target is the same in series [8]. The series is described as follows: Inhibition of PD-1/PD-L1 (unknown origin) interaction expressed in human HEK293T cells by HTRF analysis. The series is classed as cell-based.
A short description of series [9]: Oral bioavailability in mouse at 2 mg/kg. It is filed as ADME, organism-based. The settings on record: in vivo.
Series [10] is described as follows: Oral bioavailability in rat at 2 mg/kg by LC-MS/MS analysis. The series is classed as ADME, organism-based. The settings on record: in vivo.
Series [11] is described as follows: Oral bioavailability in Beagle dog at 2 mg/kg. The series is classed as ADME, organism-based, Canis lupus familiaris. As to conditions: in vivo.
A short description of series [12]: Oral bioavailability in monkey at 5 mg/kg. The series is classed as ADME, organism-based, Macaca mulatta. The settings on record: rhesus monkey, in vivo.

The structures appear in SMILES notation. Where a SMILES comes first, the peptide text is derived from it. Bridges are numbered along the chain shown (N, C = ends). [ ]: non-standard residue; d: D form. Trp(1-CH2COOH) = N[C@@H](Cc1cn(CC(=O)O)c2ccccc12)C(=O)O; Hyp = O=C(O)[C@@H]1C[C@@H](O)CN1; NMeNle = CCCC[C@H](NC)C(=O)O; NMeA = CN[C@@H](C)C(=O)O; Dab = NCC[C@H](N)C(=O)O; Dap = NC[C@H](N)C(=O)O; Sar = CNCC(=O)O

One may read the Kd as the constant that tells how readily two partners part at equilibrium. Turning to `O=C(O)c1ccc(-c2ccc(F)cc2)cc1`, the Kd in series [1] turned out to be 300 µM.

The term Ki denotes the equilibrium dissociation constant of an inhibitor or competing ligand from its target. As to `O=C(O)c1ccc(-c2ccc(F)cc2)cc1/C=C/c1cccc(-c2ccccc2)c1`, in series [2], the inhibition constant Ki amounted to 1.4 µM.

As to `Oc1cccc2c1CCCC2`, in [1], the Kd came out at 4300 µM.

For `Cc1cccc(C2c3[nH]c4ccccc4c3CC3C(=O)N(c4ccccc4C(=O)O)C(=O)N32)c1` (stereo not given), the Kd in series [3] is 177 µM.

Take `O=C(NS(=O)(=O)c1ccc(NCCSc2ccccc2)c([N+](=O)[O-])c1)c1ccc(-c2ccc(F)cc2)cc1`: in [2], the Ki was 0.036 µM.

In the case of `Oc1ccc(-c2ccccc2)cc1`, in series [1], the Kd was found to be 6000 µM.

In the case of `CN(C)CC[C@H](CSc1ccccc1)Nc1ccc(S(=O)(=O)NC(=O)c2ccc(N3CCN(Cc4ccccc4-c4ccc(Cl)cc4)CC3)cc2)cc1[N+](=O)[O-]` [ABT 737], the Ki in [4] is less than 0.001 µM.

What is called IC50 is the concentration that inhibits the measured activity by half. In [5], `CCCC[C@H]1C(=O)N(C)[C@@H](CCCC)C(=O)N[C@@H](CC(C)C)C(=O)N[C@H](C(=O)NCC(N)=O)CSCC(=O)N[C@@H](Cc2ccc(O)cc2)C(=O)N(C)[C@@H](C)C(=O)N[C@@H](CC(N)=O)C(=O)N2CCC[C@H]2C(=O)N[C@@H](CN)C(=O)N[C@@H](CC(C)C)C(=O)N2C[C@H](O)C[C@H]2C(=O)N[C@@H](Cc2c[nH]c3ccccc23)C(=O)N[C@@H](CCN)C(=O)N[C@@H](Cc2cn(CC(=O)O)c3ccccc23)C(=O)N1C` ({CH2CO}-Y[NMeA]NP[Dap]L[Hyp]W[Dab][Trp(1-CH2COOH)][NMeNle][NMeNle]LCG-NH2; thioether N-14) showed an IC50 of 0.00027 µM.

Take `COc1cc2cc(C(=O)CCC(=O)O)sc2cc1OC`: the Kd in [6] came out at 18 µM.

With `CCCC[C@H]1C(=O)N(C)[C@@H](CCCC)C(=O)N[C@@H](CCCNC(=N)N)C(=O)N[C@H](C(=O)NCC(N)=O)CSCC(=O)N[C@@H](Cc2ccccc2)C(=O)N(C)[C@@H](C)C(=O)N[C@@H](CC(N)=O)C(=O)N2CCC[C@H]2C(=O)N[C@@H](Cc2c[nH]cn2)C(=O)N[C@@H](CC(C)C)C(=O)N(C)CC(=O)N[C@@H](Cc2c[nH]c3ccccc23)C(=O)N[C@@H](CO)C(=O)N[C@@H](Cc2c[nH]c3ccccc23)C(=O)N1C` ({CH2CO}-F[NMeA]NPHL[Sar]WSW[NMeNle][NMeNle]RCG-NH2; thioether N-14), the figures for the IC50 in series [7] and in series [8] were 0.009 µM and 0.06 µM, respectively.

As a reminder, the bioavailability is the share of a dose that reaches the circulation, judged against a reference dose that is usually intravenous. Turning to `COc1cccc(Nc2ncnn3ccc(CN4CC[C@@H](N)[C@@H](O)C4)c23)c1`, the bioavailability is 29.7% in series [9], 29.7% in series [10], 29.7% in series [11] and 8% in series [12].
